Assay results from patent publication US8134001B2, “Spiroindolinone derivatives” (Hoffmann-La Roche Inc., priority 2007, dated 2012).

Molecular target: interaction between p53 and MDM2 proteins (recombinant GST-tagged MDM2 / biotinylated p53 peptide) (Homo sapiens, UniProt Q00987)
Experiment: HTRF assay of inhibition of the p53-MDM2 interaction
Assay type: binding
Details: 0.2% BSA
Description: The ability of the compounds to inhibit the interaction between p53 and MDM2 proteins was measured by an HTRF (homogeneous time-resolved fluorescence) assay in which recombinant GST-tagged MDM2 binds to a peptide that resembles the MDM2-interacting region of p53 (Lane et al.). Binding of GST-MDM2 protein and p53-peptide (biotinylated on its N-terminal end) is registered by the FRET (fluorescence resonance energy transfer) between Europium (Eu)-labeled anti-GST antibody and streptavidin-conjugated Allophycocyanin (APC).
Test is performed in black flat-bottom 384-well plates (Costar) in a total volume of 40 uL containing: 90 nM biotinylate peptide, 160 ng/ml GST-MDM2, 20 nM streptavidin-APC (PerkinElmerWallac), 2 nM Eu-labeled anti-GST-antibody (PerkinElmerWallac), 0.2% bovine serum albumin (BSA), 1 mM dithiothreitol (DTT) and 20 mM Tris-borate saline (TBS) buffer as follows: Add 10 uL of GST-MDM2 (640 ng/ml working solution) in reaction buffer to each well. Add 10 uL diluted compounds (1:5 dilution in reaction buffer) to each well, mix by shaking. Add 20 uL biotinylated p53 peptide (180 nM working solution) in reaction buffer to each well and mix on shaker. Incubate at 37° C. for 1 h. Add 20 uL streptavidin-APC and Eu-anti-GST antibody mixture (6 nM Eu-anti-GST and 60 nM streptavidin-APC working solution) in TBS buffer with 0.2% BSA, shake at room temperature for 30 minutes and read using a TRF-capable plate reader at 665 and 615 nm (Victor 5, Perkin ElmerWallac). If not specified, the reagents were purchased from Sigma Chemical Co.

Sequence of interaction between p53 and MDM2 proteins (recombinant GST-tagged MDM2 / biotinylated p53 peptide) (Q00987 whole entry): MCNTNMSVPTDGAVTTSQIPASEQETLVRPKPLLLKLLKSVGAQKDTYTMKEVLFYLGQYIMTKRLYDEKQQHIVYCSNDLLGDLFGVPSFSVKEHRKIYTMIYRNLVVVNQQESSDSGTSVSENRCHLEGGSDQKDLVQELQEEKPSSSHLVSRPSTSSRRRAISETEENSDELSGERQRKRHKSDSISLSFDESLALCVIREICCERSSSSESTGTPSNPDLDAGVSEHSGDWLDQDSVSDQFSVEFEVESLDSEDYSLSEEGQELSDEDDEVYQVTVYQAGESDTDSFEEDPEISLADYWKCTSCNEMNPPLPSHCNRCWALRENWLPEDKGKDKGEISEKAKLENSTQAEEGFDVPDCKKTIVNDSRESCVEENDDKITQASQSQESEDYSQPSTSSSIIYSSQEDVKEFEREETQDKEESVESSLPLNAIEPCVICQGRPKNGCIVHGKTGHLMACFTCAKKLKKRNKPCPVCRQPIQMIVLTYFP

IC50 [µM]	Structure (SMILES)
0.042	C#Cc1ccc(OC2CCN(C(=O)N(CC)CC)CC2)c([C@H]2NC(=O)C[C@@H](c3cccc(Cl)c3)[C@]23C(=O)Nc2cc(Cl)ccc23)c1 (racemic) [Example 22b, racemic(2′R,3R,4′S)-6-chloro-4′-(3-chlorophenyl)-2′-[2-(1-diethylcarbamoyl-4-piperidinyloxy)-5-ethynyl-phenyl]spiro[3H-indole-3,3′-piperidine]-2,6′(1H)-dione]
0.131	O=C1C[C@@H](c2cccc(Cl)c2)[C@]2(C(=O)Nc3cc(Cl)ccc32)[C@@H](c2cc(Br)ccc2Oc2ccc(C(=O)NCCN3CCCC3)cc2)N1 (racemic) [Example 56, racemic(2′R, 3R, 4′S)-2′-{5-bromo-2-[4-(2-pyrrolidin-1-yl-ethylcarbamoyl)-phenoxy]-phenyl}-6-chloro-4′-(3-chlorophenyl)spiro[3H-indole-3,3′-piperidine]-2,6′(1H)-dione]
0.048	CC(=O)Nc1ccc(Oc2ccc(Cl)cc2[C@H]2NC(=O)C[C@@H](c3cccc(Cl)c3)[C@]23C(=O)Nc2cc(Cl)ccc23)cc1 (racemic) [Example 87, racemic(2′R, 3R, 4′S)-2′-[2-(4-acetylamino-phenoxy)-5-chloro-phenyl]-6-chloro-4′-(3-chlorophenyl)spiro[3H-indole-3,3′-piperidine]-2,6′(1H)-dione]
0.034	CC(=O)N1CCC(Oc2ccc(I)cc2[C@H]2NC(=O)[C@@H](c3cccc(Cl)c3)C[C@]23C(=O)Nc2cc(Cl)ccc23)CC1 [Example 5c, chiral(2′R,3R,4′S)-2′-[2-(1-acetyl-4-piperidinyloxy)-5-iodo-phenyl]-6-chloro-4′-(3-chlorophenyl)spiro[3H-indole-3,3′-piperidine]-2,6′(1H)-dione]

Structure (SMILES)	IC50 [µM]
C#Cc1ccc(OCC2CCN(C(=O)OC(C)(C)C)CC2)c([C@H]2NC(=O)C[C@@H](c3cccc(Cl)c3)[C@]23C(=O)Nc2cc(Cl)ccc23)c1 (racemic) [Example 2, racemic(2′R,3R,4′S)-2′-[2-(1-(tert-butoxycarbonyl)-4-piperidinylmethoxy)-5-ethynyl-phenyl]-6-chloro-4′-(3-chlorophenyl)spiro[3H-indole-3,3′-piperidine]-2,6′(1H)-dione]	0.205
